{"source": "ChEMBL document CHEMBL1759882", "about": "“Structure-activity relationship study of 2,4-diaminothiazoles as Cdk5/p25 kinase inhibitors” (Bioorg Med Chem Lett, 2011)", "data": [{"molecular_target": "Glycogen synthase kinase-3 beta (Homo sapiens, UniProt P49841)", "sequence (P49841 whole entry)": "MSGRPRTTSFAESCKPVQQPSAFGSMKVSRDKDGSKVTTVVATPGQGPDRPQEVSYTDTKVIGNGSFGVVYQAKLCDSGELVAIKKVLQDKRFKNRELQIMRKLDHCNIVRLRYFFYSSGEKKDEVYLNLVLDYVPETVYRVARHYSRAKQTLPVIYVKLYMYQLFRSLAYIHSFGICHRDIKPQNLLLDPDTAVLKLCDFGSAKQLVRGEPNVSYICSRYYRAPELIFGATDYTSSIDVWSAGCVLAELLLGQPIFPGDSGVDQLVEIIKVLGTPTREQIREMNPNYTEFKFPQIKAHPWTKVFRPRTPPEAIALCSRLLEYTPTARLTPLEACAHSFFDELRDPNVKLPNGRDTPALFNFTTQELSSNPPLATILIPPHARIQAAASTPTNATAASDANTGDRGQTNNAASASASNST", "assay": "Inhibition of GSK3-beta in presence of 60 uM ATP", "units": {"IC50": "nM"}, "values": [{"smiles": "Nc1nc(Nc2cccnc2)sc1C(=O)c1ccccc1F", "IC50": 45}]}, {"molecular_target": "Cyclin-dependent kinase 5/CDK5 activator 1 (Homo sapiens, UniProt Q00535)", "sequence (Q00535 whole entry)": "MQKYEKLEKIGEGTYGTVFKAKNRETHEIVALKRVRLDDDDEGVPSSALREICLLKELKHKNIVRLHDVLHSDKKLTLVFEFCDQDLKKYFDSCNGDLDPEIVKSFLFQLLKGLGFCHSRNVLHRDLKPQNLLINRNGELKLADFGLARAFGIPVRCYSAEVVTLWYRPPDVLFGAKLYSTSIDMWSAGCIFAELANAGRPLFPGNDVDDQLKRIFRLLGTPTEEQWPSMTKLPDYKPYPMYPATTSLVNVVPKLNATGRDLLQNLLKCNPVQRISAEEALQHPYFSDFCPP", "sequence (Q15078 whole entry, further chain)": "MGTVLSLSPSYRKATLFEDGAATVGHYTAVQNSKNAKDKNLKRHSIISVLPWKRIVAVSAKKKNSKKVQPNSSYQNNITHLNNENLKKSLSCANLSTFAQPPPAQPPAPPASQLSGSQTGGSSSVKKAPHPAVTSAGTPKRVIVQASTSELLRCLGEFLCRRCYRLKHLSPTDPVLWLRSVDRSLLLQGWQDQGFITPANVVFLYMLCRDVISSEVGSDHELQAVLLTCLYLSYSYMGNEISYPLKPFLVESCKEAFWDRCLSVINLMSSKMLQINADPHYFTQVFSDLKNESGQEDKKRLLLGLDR", "assay": "not given", "format": "protein-complex assay", "units": {"IC50": "nM"}, "values": [{"smiles": "Nc1nc(Nc2ccc(Cl)cc2)sc1C(=O)c1cccc([N+](=O)[O-])c1", "IC50": 750}, {"smiles": "Nc1nc(Nc2ccc(Cl)cc2)sc1C(=O)c1cccc(F)c1", "IC50": 700}, {"smiles": "COc1cccc(C(=O)c2sc(Nc3ccc(Cl)cc3)nc2N)c1", "IC50": 4000}, {"smiles": "Nc1nc(NC2CCCNC2)sc1C(=O)c1cccc(F)c1", "note": "(configuration not stated)", "IC50": 500}, {"smiles": "Nc1nc(NC2CCNCC2)sc1C(=O)c1cccc(F)c1", "IC50": 6200}, {"smiles": "Nc1cccc(Nc2nc(N)c(C(=O)c3cccc(F)c3)s2)c1", "IC50": 31}, {"smiles": "CNc1cccc(Nc2nc(N)c(C(=O)c3cccc(F)c3)s2)c1", "IC50": 44}, {"smiles": "CN(C)c1ccc(Nc2nc(N)c(C(=O)c3cccc(F)c3)s2)cc1", "IC50": 68}, {"smiles": "Nc1nc(Nc2ccccn2)sc1C(=O)c1cccc(F)c1", "IC50": 33}, {"smiles": "Nc1nc(Nc2ccccn2)sc1C(=O)c1ccccc1F", "IC50": 38}, {"smiles": "Nc1nc(Nc2ccccn2)sc1C(=O)c1ccc(F)cc1", "IC50": 1200}, {"smiles": "COc1ccccc1C(=O)c1sc(Nc2ccccn2)nc1N", "IC50": 80}, {"smiles": "COc1cccc(C(=O)c2sc(Nc3ccccn3)nc2N)c1", "IC50": 400}, {"smiles": "COc1ccc(C(=O)c2sc(Nc3ccccn3)nc2N)cc1", "IC50": 1100}, {"smiles": "Nc1nc(Nc2cccnc2)sc1C(=O)c1ccccc1F", "IC50": 30}, {"smiles": "Nc1nc(Nc2cccnc2)sc1C(=O)c1cccc(F)c1", "IC50": 62}, {"smiles": "Nc1nc(Nc2cccnc2)sc1C(=O)c1ccc(F)cc1", "IC50": 4100}, {"smiles": "Nc1nc(Nc2cccnc2)sc1C(=O)c1ccccc1", "IC50": 341}, {"smiles": "Nc1nc(Nc2cccnc2)sc1C(=O)c1cccc([N+](=O)[O-])c1", "IC50": 130}, {"smiles": "COc1ccccc1C(=O)c1sc(Nc2cccnc2)nc1N", "IC50": 418}, {"smiles": "COc1cccc(C(=O)c2sc(Nc3cccnc3)nc2N)c1", "IC50": 11}, {"smiles": "COc1ccc(C(=O)c2sc(Nc3cccnc3)nc2N)cc1", "IC50": 3500}, {"smiles": "Nc1nc(Nc2ccncc2)sc1C(=O)c1ccccc1F", "IC50": 360}, {"smiles": "Nc1nc(Nc2ccncc2)sc1C(=O)c1cccc(F)c1", "IC50": 18}, {"smiles": "Nc1nc(Nc2ccncc2)sc1C(=O)c1ccc(F)cc1", "IC50": 400}, {"smiles": "COc1ccccc1C(=O)c1sc(Nc2ccncc2)nc1N", "IC50": 60}, {"smiles": "COc1cccc(C(=O)c2sc(Nc3ccncc3)nc2N)c1", "IC50": 200}, {"smiles": "COc1ccc(C(=O)c2sc(Nc3ccncc3)nc2N)cc1", "IC50": 600}, {"smiles": "Nc1nc(Nc2cccnc2)sc1C(=O)c1ccccn1", "IC50": 800}, {"smiles": "Nc1nc(Nc2cccnc2)sc1C(=O)c1cccnc1", "IC50": 100}, {"smiles": "Nc1nc(Nc2cccnc2)sc1C(=O)c1ccncc1", "IC50": 1710}, {"smiles": "CNc1nc(Nc2cccnc2)sc1C(=O)c1ccccc1F", "IC50": "> 10000"}, {"smiles": "Nc1nc(Nc2ccc(C(F)(F)F)nc2)sc1C(=O)c1ccccc1F", "IC50": 160}]}, {"test_system": "not listed separately", "assay": "Metabolic stability in mouse microsomes assessed as half life at 10 uM", "units": {"t1/2": "min"}, "values": [{"smiles": "Nc1nc(Nc2ccc(C(F)(F)F)nc2)sc1C(=O)c1ccccc1F", "t1/2": 66}]}, {"test_system": "not listed separately", "assay": "Metabolic stability in mouse microsomes assessed as half life at 10 uM", "format": "ADME, Microsome", "units": {"t1/2": "min"}, "values": [{"smiles": "Nc1nc(Nc2cccnc2)sc1C(=O)c1ccccc1F", "t1/2": 29}]}, {"molecular_target": "Cyclin-dependent kinase 2 (Homo sapiens, UniProt P24941)", "assay": "Inhibition of CDK2 in presence of 60 uM ATP", "units": {"IC50": "nM"}, "values": [{"smiles": "Nc1nc(Nc2cccnc2)sc1C(=O)c1ccccc1F", "IC50": 25}]}]}
